Experiments:
thrombin = thrombin (Homo sapiens, UniProt P00734); experiment: thrombin amidolytic assay (IIA)
Protocol: (§1) In the assays for thrombin, prothrombinase and factor Xa, a synthetic chromogenic substrate is added to a solution containing test compound and the enzyme of interest and the residual catalytic activity of that enzyme is determined spectrophotometrically. The IC50 of a compound is determined from the substrate turnover. […] The factor Xa and thrombin assays are performed at room temperature, in 0.02 M Tris·HCl buffer, pH 7.5, containing 0.15 M NaCl.

factor Xa = factor Xa (Homo sapiens, UniProt P00742); experiment: factor Xa amidolytic assay (XA)
Protocol: as §1

TRYPSIN = target: T1, TRYPSIN (Bos taurus, UniProt P00760); experiment: trypsin protease inhibition; type: biochemical
T1 construct: gene PRSS1
T1 sequence (P00760 24-246): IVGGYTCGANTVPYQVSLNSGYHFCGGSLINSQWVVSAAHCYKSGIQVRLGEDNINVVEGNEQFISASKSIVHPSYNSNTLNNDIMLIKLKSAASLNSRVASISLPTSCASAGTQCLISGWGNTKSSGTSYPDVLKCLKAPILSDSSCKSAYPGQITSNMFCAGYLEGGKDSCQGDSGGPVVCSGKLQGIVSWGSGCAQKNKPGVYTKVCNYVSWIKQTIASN

prothrombinase complex = prothrombinase complex (Homo sapiens, UniProt P00742); experiment: prothrombinase inhibition assay (IIASE); type: biochemical; details: plasma free system, Chromozym TH
Protocol: The prothrombinase inhibition assay is performed in a plasma free system with modifications to the method described by Sinha, U. et al., Thromb. […] Specifically, the activity of the prothrombinase complex is determined by measuring the time course of thrombin generation using the p-nitroanilide substrate Chromozym TH. […] Aliquots from the complex-inhibitor mixture are added to prothrombin (1 nM) and Chromozym TH (0.1 mM). […] Eight different concentrations of inhibitor are assayed in duplicate. A standard curve of thrombin generation by an equivalent amount of untreated complex is used for determination of percent inhibition.

factor Xa, sequence (P00742 235-488 limits assumed): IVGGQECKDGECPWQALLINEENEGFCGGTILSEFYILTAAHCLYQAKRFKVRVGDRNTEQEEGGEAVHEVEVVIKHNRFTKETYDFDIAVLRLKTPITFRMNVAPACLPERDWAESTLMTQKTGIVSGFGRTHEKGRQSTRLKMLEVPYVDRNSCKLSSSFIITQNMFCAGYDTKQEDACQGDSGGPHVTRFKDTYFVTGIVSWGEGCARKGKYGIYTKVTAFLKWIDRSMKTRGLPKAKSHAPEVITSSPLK
factor Xa, sequence (P00742 41-179 limits assumed): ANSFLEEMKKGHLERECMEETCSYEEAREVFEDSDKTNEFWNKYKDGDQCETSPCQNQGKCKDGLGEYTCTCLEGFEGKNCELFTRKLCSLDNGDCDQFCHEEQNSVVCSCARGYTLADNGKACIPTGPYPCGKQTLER
prothrombinase complex, sequence (P00742 235-488 limits assumed): as the sequence (P00742 235-488 limits assumed) above
prothrombinase complex, sequence (P00742 41-179 limits assumed): as the sequence (P00742 41-179 limits assumed) above
prothrombinase complex, sequence (P12259 29-737 partner limits assumed): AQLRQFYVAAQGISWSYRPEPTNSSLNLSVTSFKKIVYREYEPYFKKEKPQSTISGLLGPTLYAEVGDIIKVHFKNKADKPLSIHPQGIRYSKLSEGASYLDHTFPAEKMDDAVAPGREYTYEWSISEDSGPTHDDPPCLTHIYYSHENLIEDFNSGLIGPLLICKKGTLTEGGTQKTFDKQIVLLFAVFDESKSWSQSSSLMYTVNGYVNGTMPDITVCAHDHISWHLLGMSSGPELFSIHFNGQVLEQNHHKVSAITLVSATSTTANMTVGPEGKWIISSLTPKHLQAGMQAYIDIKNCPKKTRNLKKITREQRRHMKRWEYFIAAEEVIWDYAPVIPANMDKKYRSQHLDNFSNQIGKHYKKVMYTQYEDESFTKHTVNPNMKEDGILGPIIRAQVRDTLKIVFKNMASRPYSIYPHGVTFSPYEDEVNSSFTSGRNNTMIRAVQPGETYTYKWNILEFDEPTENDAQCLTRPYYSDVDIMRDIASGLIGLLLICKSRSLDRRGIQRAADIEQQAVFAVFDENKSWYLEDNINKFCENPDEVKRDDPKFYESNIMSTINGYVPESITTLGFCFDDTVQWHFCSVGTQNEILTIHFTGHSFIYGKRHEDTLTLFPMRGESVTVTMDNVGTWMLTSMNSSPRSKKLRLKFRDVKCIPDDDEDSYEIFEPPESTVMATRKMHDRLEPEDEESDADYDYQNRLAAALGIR
prothrombinase complex, sequence (P12259 1574-2224 partner limits assumed): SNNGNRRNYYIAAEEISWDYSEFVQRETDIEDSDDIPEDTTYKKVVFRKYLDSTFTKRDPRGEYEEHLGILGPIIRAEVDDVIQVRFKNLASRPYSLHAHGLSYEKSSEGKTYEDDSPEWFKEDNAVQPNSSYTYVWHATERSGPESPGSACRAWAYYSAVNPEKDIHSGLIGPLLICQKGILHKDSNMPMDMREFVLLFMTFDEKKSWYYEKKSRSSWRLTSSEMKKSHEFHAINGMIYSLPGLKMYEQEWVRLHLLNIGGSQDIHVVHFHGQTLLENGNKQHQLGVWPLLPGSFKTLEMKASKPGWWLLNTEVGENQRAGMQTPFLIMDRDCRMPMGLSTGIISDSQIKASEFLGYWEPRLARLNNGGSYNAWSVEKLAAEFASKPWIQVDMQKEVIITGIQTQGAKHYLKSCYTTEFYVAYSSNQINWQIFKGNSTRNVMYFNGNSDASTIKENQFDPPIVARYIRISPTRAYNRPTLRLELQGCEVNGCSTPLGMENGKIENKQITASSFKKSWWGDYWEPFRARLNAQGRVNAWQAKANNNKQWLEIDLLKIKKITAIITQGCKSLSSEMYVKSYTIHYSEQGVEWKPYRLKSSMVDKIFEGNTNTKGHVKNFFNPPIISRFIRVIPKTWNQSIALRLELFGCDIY

Q: Which results are given for `N=C(N)c1ccc2ccc(Cn3c(=O)ccc4cc(OC5CCNCC5)ccc43)cc2c1` [Example 1]?
A: IC50 (thrombin): 122000 nM; IC50 (factor Xa): 151 nM; IC50 (TRYPSIN): 77.2 nM; IC50 (prothrombinase complex): 9110 nM

Q: With `CC(=N)N1CCC(Oc2ccc3c(ccc(=O)n3Cc3cccc(-c4ccc(C(=N)N)cc4)c3)c2)CC1` [Example 15] as the molecule, how does the IC50 (thrombin) read?
A: The IC50 was 30400 nM.

Q: What about the IC50 (factor Xa) of the same molecule?
A: Its IC50 is 18800 nM.

Q: What about the IC50 (TRYPSIN) of the same molecule?
A: The IC50 was 3370 nM.

Q: What about the IC50 (prothrombinase complex) of the same molecule?
A: The IC50 was 33500 nM.

Q: Which results are given for `N=C(N)c1cccc(-c2ccccc2Cn2c(=O)ccc3cc(OC4CCNCC4)ccc32)c1` [Example 11]?
A: IC50 (thrombin): 2480 nM; IC50 (factor Xa): 41900 nM; IC50 (TRYPSIN): 289 nM; IC50 (prothrombinase complex): 2180 nM

Q: For `N=C(N)c1ccc2ccc(Cn3c(=O)ccc4cc(OC5CCN(c6ncccn6)CC5)ccc43)cc2c1` [Example 18], which IC50 (thrombin) is on record?
A: The IC50 was 75000 nM.

Q: And the IC50 (factor Xa)?
A: The IC50 was 580 nM.

Q: And the IC50 (TRYPSIN)?
A: The IC50 was 656 nM.

Q: And the IC50 (prothrombinase complex)?
A: Its IC50 is 3250 nM.

Q: With `CC(=N)N1CCC(Oc2ccc3c(ccc(=O)n3Cc3cccc(-c4cccc(C(=N)N)c4)c3)c2)CC1` [Example 4] as the molecule, how does the IC50 (thrombin) read?
A: The IC50 was 4560 nM.

Q: What about the IC50 (factor Xa) of the same molecule?
A: Its IC50 is 11.8 nM.

Q: And the IC50 (TRYPSIN)?
A: Its IC50 is 47.7 nM.

Q: And the IC50 (prothrombinase complex)?
A: Its IC50 is 157 nM.

Q: What does the source list for `N=C(N)c1cccc(-c2cccc(Cn3c(=O)ccc4cc(OC5CCNCC5)ccc43)c2)c1` [Example 5]?
A: IC50 (thrombin): 6590 nM; IC50 (factor Xa): 1570 nM; IC50 (TRYPSIN): 263 nM; IC50 (prothrombinase complex): 46300 nM

Q: What does the source list for `CN1CCC(Oc2ccc3c(ccc(=O)n3Cc3ccc4ccc(C(=N)N)cc4c3)c2)CC1` [Example 16]?
A: IC50 (thrombin): 399000 nM; IC50 (factor Xa): 209 nM; IC50 (TRYPSIN): 315 nM; IC50 (prothrombinase complex): 2580 nM

Q: Which results are given for `CC(=N)N1CCC(Oc2ccc3c(ccc(=O)n3Cc3ccccc3-c3ccc(C(=N)N)cc3)c2)CC1` [Example 10]?
A: IC50 (thrombin): 995 nM; IC50 (factor Xa): 137000 nM; IC50 (TRYPSIN): 52500 nM; IC50 (prothrombinase complex): 1200 nM

Q: Which results are given for `CC(=N)N1CCC(Oc2ccc3c(ccc(=O)n3Cc3ccc(-c4cccc(C(=N)N)c4)cc3)c2)CC1` [Example 7]?
A: IC50 (thrombin): 45000 nM; IC50 (factor Xa): 82.3 nM; IC50 (TRYPSIN): 4290 nM; IC50 (prothrombinase complex): 362 nM

Q: With `N=C(N)c1ccc(-c2ccccc2Cn2c(=O)ccc3cc(OC4CCNCC4)ccc32)cc1` [Example 8] as the molecule, how does the IC50 (thrombin) read?
A: The IC50 was 1700 nM.

Q: And the IC50 (factor Xa)?
A: Its IC50 is 501000 nM.

Q: And the IC50 (TRYPSIN)?
A: Its IC50 is 56600 nM.

Q: And the IC50 (prothrombinase complex)?
A: The IC50 was 1920 nM.

Q: Which results are given for `CCn1c(Cn2c(=O)ccc3cc(OC4CCN(C(C)=N)CC4)ccc32)cc2ccc(C(=N)NN)cc21` [Example 17]?
A: IC50 (thrombin): 11000 nM; IC50 (factor Xa): 514 nM; IC50 (TRYPSIN): 832 nM; IC50 (prothrombinase complex): 1210 nM

Q: Which IC50 (thrombin) does the source give for `CCn1c(Cn2c(=O)ccc3cc(OC4CCN(C(C)=N)CC4)ccc32)cc2ccc(C(=N)N)cc21` [Example 14] here?
A: Its IC50 is 69.3 nM.

Q: What about the IC50 (factor Xa) of the same molecule?
A: The IC50 was 4.74 nM.

Q: What about the IC50 (TRYPSIN) of the same molecule?
A: Its IC50 is 10.4 nM.

Q: And the IC50 (prothrombinase complex)?
A: Its IC50 is 14.3 nM.

Q: Which IC50 (thrombin) does the source give for `N=C(N)c1ccc(-c2ccc(Cn3c(=O)ccc4cc(OC5CCNCC5)ccc43)cc2)cc1` [Example 12] here?
A: The IC50 was 9130 nM.

Q: What about the IC50 (factor Xa) of the same molecule?
A: The IC50 was 70000 nM.

Q: What about the IC50 (TRYPSIN) of the same molecule?
A: The IC50 was 4410 nM.

Q: And the IC50 (prothrombinase complex)?
A: The IC50 was 15500 nM.

Q: Which results are given for `N=C(N)c1cccc(-c2ccc(Cn3c(=O)ccc4cc(OC5CCNCC5)ccc43)cc2)c1` [Example 6]?
A: IC50 (thrombin): 58800 nM; IC50 (factor Xa): 4940 nM; IC50 (TRYPSIN): 3630 nM; IC50 (prothrombinase complex): 38200 nM

Q: Which IC50 (thrombin) does the source give for `CC(=N)N1CCC(Oc2ccc3c(ccc(=O)n3Cc3ccc(-c4ccc(C(=N)N)cc4)cc3)c2)CC1` [Example 13] here?
A: The IC50 was 3000 nM.

Q: What about the IC50 (factor Xa) of the same molecule?
A: The IC50 was 50000 nM.

Q: What about the IC50 (TRYPSIN) of the same molecule?
A: Its IC50 is 1910 nM.

Q: What about the IC50 (prothrombinase complex) of the same molecule?
A: The IC50 was 8630 nM.

Q: What does the source list for `CC(=N)N1CCC(Oc2ccc3c(ccc(=O)n3Cc3ccccc3-c3cccc(C(=N)N)c3)c2)CC1` [Example 9]?
A: IC50 (factor Xa): 2550 nM; IC50 (TRYPSIN): 847 nM; IC50 (prothrombinase complex): 697 nM

— patent US6777413B2, “2-[1H]-quinolone and 2-[1H]-quinoxalone inhibitors of factor Xa” (Millennium Pharmaceuticals, Inc., priority 2000, dated 2004)
